Data from patent US12098145B2 (Libra Therapeutics, Inc., priority 2022, dated 2024).
Where two headings read alike, the source gives them in different places.

Target: T1, TRPML1 (Homo sapiens, UniProt Q9GZU1)
T1 construct: expressed in transfected cells; host or cells: HEK T-REx cells stably expressing GCaMP6f and TRPML1
Assay: Cellular TRPML1 assay (FLIPR, GCaMP6f calcium read-out)
Format: cell-based
How it was run: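 Read-out is GCaMP6f fluorescence over 300 s after compound addition in Ca2+-free Tyrode's buffer, final DMSO 0.5%, on FLIPR Tetra. Cells are HEK T-REx stably co-expressing the indicator and TRPML1, plated 24 h earlier in Optimem + 0.5% FBS and pre-incubated ~10 min at room temperature.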

[1] = HEKT-REx/GCaMP6f/TRPML1 cells, FLIPR TETRA, kinetic response over 300 seconds, read-out: TRPML1 FLIPR pEC50 (converted)

T1 sequence (Q9GZU1 whole entry): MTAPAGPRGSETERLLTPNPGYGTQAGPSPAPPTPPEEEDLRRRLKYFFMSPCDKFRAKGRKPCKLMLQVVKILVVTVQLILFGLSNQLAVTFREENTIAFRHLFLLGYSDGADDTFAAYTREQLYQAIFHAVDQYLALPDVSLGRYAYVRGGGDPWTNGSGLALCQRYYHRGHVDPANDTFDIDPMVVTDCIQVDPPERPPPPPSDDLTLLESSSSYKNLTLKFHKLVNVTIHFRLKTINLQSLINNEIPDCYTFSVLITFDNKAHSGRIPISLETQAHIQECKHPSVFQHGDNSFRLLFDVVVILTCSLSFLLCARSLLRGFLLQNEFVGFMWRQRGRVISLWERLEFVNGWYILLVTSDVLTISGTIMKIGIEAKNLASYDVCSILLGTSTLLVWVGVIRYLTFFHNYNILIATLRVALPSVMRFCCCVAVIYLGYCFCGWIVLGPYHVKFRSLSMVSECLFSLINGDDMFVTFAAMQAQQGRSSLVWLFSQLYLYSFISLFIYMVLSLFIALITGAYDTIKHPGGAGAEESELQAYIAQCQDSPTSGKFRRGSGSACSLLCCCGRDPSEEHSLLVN

SMILES	EC50 [1] [nM]	EC50 [nM]
O=C(Nc1ccc(O[C@@H]2CC3C[C@@H]3C2)c(F)c1)c1nc(N2CC3OCOC3C2)oc1CC(F)(F)F (stereo partly drawn) [Example 153, N-(4-(cis-bicyclo[3.1.0]hexan-3-yloxy)-3-fluorophenyl)-2-(tetrahydro-5H-[1,3]dioxolo[4,5-c]pyrrol-5-yl)-5-(2,2,2-trifluoroethyl)oxazole-4-carboxamide]	10 to 1000	–
CCC1(CC)CN(c2nc(C(=O)Nc3ccc(OC4CCCOC4)c(F)c3)c(CC(F)(F)F)o2)C1 (stereo not shown) [Example 158, 2-(3,3-diethylazetidin-1-yl)-N-(3-fluoro-4-((tetrahydro-2H-pyran-3-yl)oxy)phenyl)-5-(2,2,2-trifluoroethyl)oxazole-4-carboxamide]	10 to 1000	–
CCC1(OC)CN(c2nc(C(=O)Nc3cc(F)c(OC4CCCOC4)c(F)c3)c(CC(F)(F)F)o2)C1 (stereo not shown) [Example 160, N-(3,5-difluoro-4-((tetrahydro-2H-pyran-3-yl)oxy)phenyl)-2-(3-ethyl-3-methoxyazetidin-1-yl)-5-(2,2,2-trifluoroethyl)oxazole-4-carboxamide]	10 to 1000	–
O=C(Nc1cc(F)c(O[C@@H]2C[C@@H]3C[C@@H]3C2)c(F)c1)c1nc(N2Cc3conc3C2)oc1CC(F)(F)F [Example 166, N-(4-(cis-bicyclo[3.1.0]hexan-3-yloxy)-3,5-difluorophenyl)-2-(4H-pyrrolo[3,4-c]isoxazol-5(6H)-yl)-5-(2,2,2-trifluoroethyl)oxazole-4-carboxamide]	10 to 1000	–
CCC1(OC)CN(c2nc(C(=O)Nc3cc(F)c(O[C@@H]4C[C@@H]5C[C@@H]5C4)c(F)c3)c(CC(F)(F)F)o2)C1 [Example 167, N-(4-(cis-bicyclo[3.1.0]hexan-3-yloxy)-3,5-difluorophenyl)-2-(3-ethyl-3-methoxyazetidin-1-yl)-5-(2,2,2-trifluoroethyl)oxazole-4-carboxamide]	10 to 1000	–
COCC1(COC)CN(c2nc(C(=O)Nc3cc(F)c(O[C@@H]4C[C@@H]5C[C@@H]5C4)c(F)c3)c(CC(F)(F)F)o2)C1 [Example 168, N-(4-(cis-bicyclo[3.1.0]hexan-3-yloxy)-3,5-difluorophenyl)-2-(3,3-bis(methoxymethyl)azetidin-1-yl)-5-(2,2,2-trifluoroethyl)oxazole-4-carboxamide]	10 to 1000	–
O=C(Nc1cc(F)c(OC2CC3CC(C3)C2)c(F)c1)c1nc(N2CCCC2)oc1CC(F)(F)F (stereo not shown) [Example 169, N-(4-(bicyclo[3.1.1]heptan-3-yloxy)-3,5-difluorophenyl)-2-(pyrrolidin-1-yl)-5-(2,2,2-trifluoroethyl)oxazole-4-carboxamide]	10 to 1000	–
O=C(Nc1cc(F)c(OC2CC3C[C@@H]3C2)c(F)c1)c1nc(N2CC3CC2C3)oc1CC(F)(F)F (stereo partly drawn) [Example 175, 2-(2-azabicyclo[2.1.1]hexan-2-yl)-N-(4-(cis-bicyclo[3.1.0]hexan-3-yloxy)-3,5-difluorophenyl)-5-(2,2,2-trifluoroethyl)oxazole-4-carboxamide]	10 to 1000	–
CC1CN(c2nc(C(=O)Nc3cc(F)c(OC4CC5C[C@H]5C4)c(F)c3)c(CC(F)(F)F)o2)CC(C)O1 (stereo partly drawn) [Example 176, N-(4-(cis-bicyclo[3.1.0]hexan-3-yloxy)-3,5-difluorophenyl)-2-(2,6-dimethylmorpholino)-5-(2,2,2-trifluoroethyl)oxazole-4-carboxamide]	10000 to 100000	–
O=C(Nc1cc(F)c(O[C@@H]2C[C@@H]3C[C@@H]3C2)c(F)c1)c1nc(N2CCOCC2)oc1CC(F)(F)F [Example 181, N-(4-(cis-bicyclo[3.1.0]hexan-3-yloxy)-3,5-difluorophenyl)-2-morpholino-5-(2,2,2-trifluoroethyl)oxazole-4-carboxamide]	1000 to 10000	–
O=C(Nc1cc(F)c(OC2CC3C[C@@H]3C2)c(F)c1)c1nc(N2CC3CC2CO3)oc1CC(F)(F)F (stereo partly drawn) [Example 182, 2-(2-oxa-5-azabicyclo[2.2.1]heptan-5-yl)-N-(4-(cis-bicyclo[3.1.0]hexan-3-yloxy)-3,5-difluorophenyl)-5-(2,2,2-trifluoroethyl)oxazole-4-carboxamide]	1000 to 10000	–
CC1(C)CN(c2nc(C(=O)Nc3cc(F)c(O[C@@H]4C[C@@H]5C[C@@H]5C4)c(F)c3)c(CC(F)(F)F)o2)CCO1 [Example 184, N-(4-(cis-bicyclo[3.1.0]hexan-3-yloxy)-3,5-difluorophenyl)-2-(2,2-dimethylmorpholino)-5-(2,2,2-trifluoroethyl)oxazole-4-carboxamide]	1000 to 10000	–
O=C(Nc1ccc(OC2CC3C[C@@H]3C2)c(F)c1)c1nc(N2CC3CCOC3C2)oc1CC(F)(F)F (stereo partly drawn) [Example 187, N-(4-(cis-bicyclo[3.1.0]hexan-3-yloxy)-3-fluorophenyl)-2-(hexahydro-5H-furo[2,3-c]pyrrol-5-yl)-5-(2,2,2-trifluoroethyl)oxazole-4-carboxamide]	10 to 1000	–
O=C(Nc1cc(F)c(O[C@@H]2C[C@@H]3C[C@@H]3C2)c(F)c1)c1nc(N2CC3(CCOCC3)C2)oc1CC(F)(F)F [Example 188, N-(4-(cis-bicyclo[3.1.0]hexan-3-yloxy)-3,5-difluorophenyl)-2-(7-oxa-2-azaspiro[3.5]nonan-2-yl)-5-(2,2,2-trifluoroethyl)oxazole-4-carboxamide]	10 to 1000	–
O=C(Nc1cc(F)c(O[C@@H]2C[C@@H]3C[C@@H]3C2)c(F)c1)c1nc(N2CC3(CCOC3)C2)oc1CC(F)(F)F [Example 189, N-(4-(cis-bicyclo[3.1.0]hexan-3-yloxy)-3,5-difluorophenyl)-2-(6-oxa-2-azaspiro[3.4]octan-2-yl)-5-(2,2,2-trifluoroethyl)oxazole-4-carboxamide]	10 to 1000	–
O=C(Nc1ccc(OCC2CC3CC3C2)c(F)c1)c1nc(N2CCCC2)oc1CC(F)(F)F (stereo not shown) [Example 190, N-(4-(bicyclo[3.1.0]hexan-3-ylmethoxy)-3-fluorophenyl)-2-(pyrrolidin-1-yl)-5-(2,2,2-trifluoroethyl)oxazole-4-carboxamide]	1000 to 10000	–
CCC1(CC)CN(c2nc(C(=O)Nc3cnc(OC4CC5C[C@H]5C4)c(F)c3)c(CC(F)(F)F)o2)C1 (stereo partly drawn) [Example 191, N-(6-(cis-bicyclo[3.1.0]hexan-3-yloxy)-5-fluoropyridin-3-yl)-2-(3,3-diethylazetidin-1-yl)-5-(2,2,2-trifluoroethyl)oxazole-4-carboxamide]	1000 to 10000	–
CCC1(CC)CN(c2nc(C(=O)Nc3cc(C)c(NC4CC5CC(C5)C4)c(F)c3)c(CC(F)(F)F)o2)C1 (stereo not shown) [Example 192, N-(4-(bicyclo[3.1.1]heptan-3-ylamino)-3-fluoro-5-methylphenyl)-2-(3,3-diethylazetidin-1-yl)-5-(2,2,2-trifluoroethyl)oxazole-4-carboxamide]	1000 to 10000	–
Cc1cc(NC(=O)c2nc(N3CCCC3)oc2CC(F)(F)F)cc(F)c1NC1C2CCCC1CC2 (stereo not shown) [Example 194, N-(4-(bicyclo[3.2.1]octan-8-ylamino)-3-fluoro-5-methylphenyl)-2-(pyrrolidin-1-yl)-5-(2,2,2-trifluoroethyl)oxazole-4-carboxamide]	10000 to 100000	–
O=C(Nc1cc(F)c(N2CCC3OCCC32)c(F)c1)c1nc(N2CCCC2)oc1CC(F)(F)F (stereo not shown) [Example 198, N-(3,5-difluoro-4-(hexahydro-4H-furo[3,2-b]pyrrol-4-yl)phenyl)-2-(pyrrolidin-1-yl)-5-(2,2,2-trifluoroethyl)oxazole-4-carboxamide]	1000 to 10000	–
O=C(Nc1cc(F)c(N2C3CCCC2CC3)c(F)c1)c1nc(N2CCCOCC2)oc1CC(F)(F)F [Example 199, N-(4-(8-azabicyclo[3.2.1]octan-8-yl)-3,5-difluorophenyl)-2-(1,4-oxazepan-4-yl)-5-(2,2,2-trifluoroethyl)oxazole-4-carboxamide]	1000 to 10000	–
CCC1(OC)CN(c2nc(C(=O)Nc3cc(F)c(N4CCC5CC5C4)c(F)c3)c(CC(F)(F)F)o2)C1 (stereo not shown) [Example 204, N-(4-(3-azabicyclo[4.1.0]heptan-3-yl)-3,5-difluorophenyl)-2-(3-ethyl-3-methoxyazetidin-1-yl)-5-(2,2,2-trifluoroethyl)oxazole-4-carboxamide]	10 to 1000	–
CCC1(OC)CN(c2nc(C(=O)Nc3cc(F)c(N4CCC5CCCC54)c(F)c3)c(CC(F)(F)F)o2)C1 (stereo not shown) [Example 205, N-(3,5-difluoro-4-(hexahydrocyclopenta[b]pyrrol-1(2H)-yl)phenyl)-2-(3-ethyl-3-methoxyazetidin-1-yl)-5-(2,2,2-trifluoroethyl)oxazole-4-carboxamide]	1000 to 10000	–
O=C(Nc1cc(F)c(N2CC3CC(C3)C2)c(F)c1)c1nc(N2CCC3(COC3)C2)oc1CC(F)(F)F [Example 208, N-(4-(3-azabicyclo[3.1.1]heptan-3-yl)-3,5-difluorophenyl)-2-(2-oxa-6-azaspiro[3.4]octan-6-yl)-5-(2,2,2-trifluoroethyl)oxazole-4-carboxamide]	–	10 to 1000
O=C(Nc1cc(F)c(N2CC3CC(C3)C2)c(F)c1)c1nc(N2CCCC2)oc1CC(F)(F)F [Example 209, N-(4-(3-azabicyclo[3.1.1]heptan-3-yl)-3,5-difluorophenyl)-2-(pyrrolidin-1-yl)-5-(2,2,2-trifluoroethyl)oxazole-4-carboxamide]	–	10 to 1000
O=C(Nc1cc(F)c(N2C3CCCC2CC3)c(F)c1)c1nc(N2CCCC2)oc1CC(F)(F)F [Example 210, N-(4-(8-azabicyclo[3.2.1]octan-8-yl)-3,5-difluorophenyl)-2-(pyrrolidin-1-yl)-5-(2,2,2-trifluoroethyl)oxazole-4-carboxamide]	–	10 to 1000
CCC1(CC)CN(c2nc(C(=O)Nc3cc(F)c(N4CCC5CC5C4)c(F)c3)c(CC(F)(F)F)o2)C1 (stereo not shown) [Example 211, N-(4-(3-azabicyclo[4.1.0]heptan-3-yl)-3,5-difluorophenyl)-2-(3,3-diethylazetidin-1-yl)-5-(2,2,2-trifluoroethyl)oxazole-4-carboxamide]	10 to 1000	–
CCC1(CC)CN(c2nc(C(=O)Nc3ccc(N4CCC5CC5C4)c(F)c3)c(CC(F)(F)F)o2)C1 (stereo not shown) [Example 212, N-(4-(3-azabicyclo[4.1.0]heptan-3-yl)-3-fluorophenyl)-2-(3,3-diethylazetidin-1-yl)-5-(2,2,2-trifluoroethyl)oxazole-4-carboxamide]	10 to 1000	–
